Results taken from patent US7175855B1, “Ziprasidone suspension” (Pfizer Inc., priority 1999, dated 2007).

Test: Ability of surfactants to wet ziprasidone HCl monohydrate in water (drug wetting time)
Type: physicochemical
Method: Different surfactants were tested for their ability to wet ziprasidone HCl monohydrate in water: sodium lauryl sulfate (SLS), MIGLYOL® (registered trademark of Dynamit Nobel Aktiengesellschaft, Germany) Triglyceride (810), and polysorbate-80. In three separate 100 mL volumes of water, each surfactant listed above was added in an amount to make a 1% solution. MIGLYOL® was added in excess due to its low solubility. While stirring at 200 rpm with an overhead stirrer, to each of the three surfactant solutions was added 1.132 g of ziprasidone […] (equivalent to 10 mgA/ml).

observed rate of wetting (1% surfactant solution in 100 mL water (MIGLYOL in excess), 1.132 g ziprasidone (10 mgA/ml), stirring at 200 rpm): >20 min
SMILES: CCCCCCCCCCCCOS(=O)(=O)[O-].[Na+] [SLS, sodium lauryl sulfate]
foaming during wetting (in words) (wetting agents tested with ziprasidone hydrochloride in water): caused foaming before adequate wetting could be obtained
